Measurements from PMC11429909, “Protein Structure Inspired Discovery of a Novel Inducer of Anoikis in Human Melanoma” (Cancers, 2024).

Test system: breast, prostate, colon, or lung cancer cell lines
Test: Eight-day colony formation assays, summary across the cancer cell line panel
Assay type: cell-based, human
Settings: 8 days
Experimental: Initial colony formation screening assays were conducted on all acquired compounds and examined at five different compound concentrations. Those meeting efficacy criteria underwent a second-level screen examining nine different compound concentrations. Eight-day colony formation assays of cancer cells were performed as described by us. Briefly, 0.5–1.0 × 10^3 cells were seeded into each well of a 12-well plate. Twenty-four hours later, the compound was added at the following final concentrations: 0 (DMSO-only control), 0.017, 0.12, 0.82, 5.7, and 40 µM. For each concentration, there were N = 2 replicates, i.e., 2 wells. Eight days later, plates were stained with trypan blue, visualized under light microscopy, and groups of three or more cells were scored as colonies. The mean number of colonies was then determined and expressed as the percentage of controls. Second-level screens were performed on compounds inhibiting colony formation by greater than 50% at 40 µM in at least two cell lines. Second-level assays used the following final concentrations of compound: 0 (DMSO only), 0.0061, 0.018, 0.05, 0.16, 0.49, 1.48, 4.44, 13.33, and 40 µM. All compounds were stored under desiccated conditions in a sealed container at minus 20 °C upon arrival. One day prior to use, they were dissolved in DMSO, stored at minus 20 °C as stock solutions, thawed just prior to use, and not reused.
Human hematopoietic stem cell trilineage colony formation assays were performed as previously described by us. Briefly, human cord blood CD34+ cells (catalog #: 70008.5) were purchased from StemCell Technology Inc. and seeded at 1 × 10^4 cells per 35 mm dish. Cells were cultured in MethoCult™ Express (StemCell Technologies, Inc. (Vancouver, BC, Canada)) semisolid media, per the manufacturer’s instructions, in the presence of compound or vehicle (for controls). Compounds were added at final concentrations matching those used in the initial growth assay screens. At eight days, colonies (i.e., groups of ≥10 cells) were counted. At fourteen days, individual colonies of erythroid burst-forming units (BFU-E), colony-forming unit granulocyte–macrophage (CFU-GM), and colony-forming unit granulocyte, erythrocyte, monocyte, and megakaryocyte (CFU-GEMM) were identified based on the manufacturers’ morphologic characterization criteria. Assays were run in replicates of N = 2, and some were run in replicates of N = 4, as denoted. The mean number of colonies was then determined and expressed as the percentage of controls. The effect of each compound on inhibiting the growth of cancer cells relative to its toxic effects on normal bone marrow was evaluated. This was carried out by comparing colonies at 8 days for each cancer cell line to that of bone marrow. This information was used to calculate the efficacy ratio, as follows: efficacy ratio = (percent of remaining cancer cell colonies)/(percent of remaining bone marrow colonies). This was performed for all compounds at 40 µM and for selected compounds at 5.7 µM, as denoted. For compounds nominated for second-level screens, bone marrow colony formation assays were also repeated. Compounds were added at final concentrations matching those used in the initial screens.
We sought to identify compounds that would inhibit the growth of cancer cells, but that also did so selectively. Inhibition of cancer cell growth is a highly sought after attribute of anticancer agents. This was assessed by measuring the ability of a compound to inhibit cell growth in eight-day colony formation assays and examining concentrations ranging from 0.017 to 40 µM. Breast, colon, lung, and prostate cancer are four of the most common types of cancer in the United States, are major causes of cancer cell death, and were examined. […]

## c1ccc2sc(-c3ccc(CNc4ccc5nnnn5n4)o3)nc2c1 [Dxr2-017]
5.7 µM
  efficacy ratio, mean ± SEM over cell lines with ratio below 0.5: 0.25 ± 0.091
40 µM
  efficacy ratio, mean ± SEM over cell lines with ratio below 0.5: 0.03 ± 0.01
